Laboratory results published in patent US5648360A, “Pentacyclic antihistamines” (Schering Corporation, priority 1994, dated 1997).

What was measured:
[1] = tested on: PAF-induced platelet aggregation; assay: In vitro PAF antagonism assay (inhibition of PAF-induced platelet aggregation in platelet-rich plasma); format: cell-based; conditions: human PRP, PAF 1-5×10^-8 M
Experimental: In vitro Assay: Preparation of platelet-rich plasma (PRP): Human blood (50 ml) is collected from healthy male donors in an anticoagulant solution (5 ml) containing sodium citrate (3.8%) and dextrose (2%). Blood is centrifuged at 110 x g for 15 min. and the supematant (PRP) carefully transferred into a polypropylene tube. Platelet-poor-plasma (PPP) is prepared by centrifuging PRP at 12,000 x g for 2 min. (Beckman Microfuge B). PRP is used within 3 hours of drawing the blood.
Platelet Aggregation Assay: When an aggregating agent such as PAF is added to PRP, platelets aggregate. The aggregation assays are performed using a dual-channel aggregometer (Model 440, Chrono-Log Corp., Havertown, Pa.). PRP (0.45 ml) in aggregometer cuvettes is continually stirred (37° C.). Solutions of test compounds or vehicle are added to the PRP, and after incubation for 2 min., 10-15 μl aliquots of PAF solution are added so as to achieve a final concentration of 1-5×10^-8 M. Incubations are continued until the increase in light transmission reaches a maximum (usually 2 min). Values for inhibition are calculated by comparing maximal aggregation obtained in the absence and the presence of the compound. For each experiment, a standard PAF antagonist such as alprazolam is used as a positive internal control. The inhibitory concentration (IC50) is the concentration of compound in micromoles at which 50% of the aggregation is inhibited, as measured by the light transmission through each sample of PRP as compared to PPP.

[2] = biological target: T1, H1 (Cavia porcellus, UniProt P31389); assay: In vitro H1 antihistamine activity assay (inhibition of histamine spasmogenic activity in isolated ileal segments); design: species or system male Hartley guinea pigs; conditions: guinea pig ileum, antagonist 5 min before histamine curve
T1 construct: Ileal segments were removed from male Hartley guinea pigs; from tissue; host or cells: isolated ileal segments of male Hartley guinea pigs
T1 sequence (P31389 whole entry): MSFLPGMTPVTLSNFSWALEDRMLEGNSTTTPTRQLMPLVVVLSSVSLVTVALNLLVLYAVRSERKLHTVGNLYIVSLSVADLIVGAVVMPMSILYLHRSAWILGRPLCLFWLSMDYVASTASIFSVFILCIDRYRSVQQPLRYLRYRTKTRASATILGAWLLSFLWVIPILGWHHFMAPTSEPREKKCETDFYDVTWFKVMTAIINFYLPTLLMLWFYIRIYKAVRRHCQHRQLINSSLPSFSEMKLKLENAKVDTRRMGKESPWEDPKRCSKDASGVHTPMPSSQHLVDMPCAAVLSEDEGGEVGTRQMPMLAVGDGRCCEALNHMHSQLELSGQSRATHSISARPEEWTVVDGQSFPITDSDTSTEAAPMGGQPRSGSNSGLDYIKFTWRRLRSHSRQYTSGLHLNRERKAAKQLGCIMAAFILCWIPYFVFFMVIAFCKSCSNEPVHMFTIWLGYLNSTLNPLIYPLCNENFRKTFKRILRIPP
Experimental: In vitro assay: Ileal segments were removed from male Hartley guinea pigs (250-350 g) and suspended in 10 ml perfusion baths containing Tyrode's solution. The buffer was equilibrated with 95% O2 and 5% CO2 and maintained at a temperature of 37° C. The tissues were adjusted to 0.5-1 g tension and allowed to equilibrate for 30 min. All responses were recorded isometrically by means of a Grasse smooth muscle transducer and electronic recorder. Drugs were tested for their ability to inhibit the spasmogenic activity of histamine dihydrochloride. Two cumulative control log concentration-response curves for histamine (10^-7 -10^-5 M) were generated for each tissue. Antagonists were added to the bath and allowed to act for 5 min. before another histamine curve was generated.
Drugs were evaluated for their ability to inhibit histamine and thereby shift the response curve to the right. […] These values were used to determine relative potency.

SMILES | IC50 [1] | inhibition at 50 µM [1] | other results
O=C(c1cc[n+]([O-])cc1)N1CC[C@H]2[C@@H](Cc3cc(Cl)cc4c3[C@@H]2c2ncccc2CC4)C1 (relative stereo) [Compound 20] | ~2.8 µM | – | –
CC(=O)N1CC[C@H]2[C@H](Cc3cc(Cl)cc4c3[C@@H]2c2ncccc2CC4)C1 (relative stereo) [Compound 14A] | ~3000 µM | – | –
CN1CC[C@@H]2[C@H]3c4ncccc4CCc4cc(Cl)cc(c43)C(=O)[C@@H]2C1 (relative stereo) [Compound 11A] | – | 47% | –
CC(=O)N1CC[C@H]2[C@@H](Cc3cc(Cl)cc4c3[C@@H]2c2ncccc2CC4)C1 (relative stereo) [Compound 14B] | ~300 µM | – | –
CC(=O)N1CC[C@@H]2C(=O)c3cc(Cl)cc4c3[C@H](c3ncccc3CC4)[C@H]2C1 (relative stereo) [Compound 6B] | – | 49% | –
CC(=O)N1CC[C@H]2C(=O)c3cc(Cl)cc4c3[C@H](c3ncccc3CC4)[C@H]2C1 (relative stereo) [Compound 6A] | – | 33% | –
CN1CC[C@@H]2[C@H]3c4ncccc4CCc4cc(Cl)cc(c43)C(=O)[C@H]2C1 (relative stereo) [Compound 11B] | – | 4% | –
CN1CC[C@H]2[C@@H](Cc3cc(Cl)cc4c3[C@@H]2c2ncccc2CC4)C1 (relative stereo) [Compound 17, 7-chloro-2,3,4,4a,5,9,10,14b,14c-decahydro-3-methylpyrido[2",3":7',6']-cyclohepta[1',2',3',:4,5]naphtho[2,3-c]pyridine] | ~38 µM | – | Ki ([2]; read-out: dissociation constant (Ki)): 0.001 µM; Kb ([2]; read-out: pA2 (converted)): 0.00141 µM
CC(=O)N1CC[C@H]2C(=Cc3cc(Cl)cc4c3[C@@H]2c2ncccc2CC4)C1 (relative stereo) [Compound 13] | – | 23% | –
CN1CC[C@H]2C(=Cc3cc(Cl)cc4c3[C@@H]2c2ncccc2CC4)C1 (relative stereo) [Compound 16] | ~5.5 µM | – | –
CC(=O)N1CC[C@@H]2[C@H]3c4ncccc4CCc4cc(Cl)cc(c43)C(=O)[C@@H]2C1 (relative stereo) [Compound 10A] | – | 15% | –
